Source: ChEMBL document CHEMBL1208773, “Improving the permeability of the hydroxyethylamine BACE-1 inhibitors: structure-activity relationship of P2' substituents” (Bioorg Med Chem Lett, 2010)

Tests used:
[1] = Lipophilicity, log P of the compound; format: physicochemical; settings: octanol/water
[2] = Dissociation constant, pKa of the compound; format: physicochemical

Row | Structure (SMILES) | logP [1] | pKa [2]
1 | CC(=O)N[C@@H](Cc1cc(F)cc(F)c1)[C@H](O)CNC1(c2cccc(C3CCCO3)c2)CCCCC1 (some centres undefined) | 4 | –
2 | CC(=O)N[C@@H](Cc1cc(F)cc(F)c1)[C@H](O)CNC1(c2cccc(C3CCOC3)c2)CCCCC1 (some centres undefined) | 4 | –
3 | CC(=O)N[C@@H](Cc1cc(F)cc(F)c1)[C@H](O)CNC1(c2cccc(C(C)(C)C)c2)CCCCC1 | 4.8 | 8.1
